What was measured:
NR4A1 [1] = settings: ref Hu et al., 2017; read-out: binding affinity of celastrol to NR4A1 (Kd); cited from earlier work
NR4A1 and VHL = NR4A1 and VHL (Homo sapiens, UniProt P22736+P40337); assay: Proximity ligation assay (PLA) for the NR4A1-VHL ternary complex; assay type: cell-based; set-up: endogenous in cells; host or cells: CHL-1 and A375 human melanoma cells; settings: CHL-1 and A375 cells, 500 nM, 16 h, 0.5 μM MG132 pretreatment
Method: 5 × 10^4 CHL-1 and A375 cells were cultured in Nunc Lab-Tek Chamber Slide (177402; Thermo Fisher Scientific). The cells were treated with DMSO, 500 nM celastrol, and 500 nM NR-V04 for 16 h with MG132 inhibitor. The PLA was conducted with Duolink In Situ Red Starter Kit Mouse/Rabbit (DUO92101; Sigma-Aldrich) following the standard protocol. Additionally, a non-stain cell group was included as a negative control to account for background signal during PLA assay. The signal was detected using a confocal microscope (LSM 710; Zeiss). Primary antibody: NR4A1 (HPA059742, 2 μg/ml, isotype-rabbit; Sigma-Aldrich) and VHL (MA5-13940, 2 μg/ml, isotype-mouse; Thermo Fisher Scientific).

NR4A1 mRNA = NR4A1 mRNA by qPCR in CHL-1 cells; assay type: cell-based, human; settings: 500 nM, ACTB as control
Method: Total RNA was extracted from cells using RNeasy Kits (74004; QIAGEN) following the manufacturer’s instructions. cDNA synthesis was performed using SuperScript III Reverse Transcriptase (18080044; Thermo Fisher Scientific) with 100 ng RNA as the template. Amplification of cDNA was carried out using 2× PowerUP SYBR Green Master Mix (A25778; Thermo Fisher Scientific). Each reaction was conducted in triplicates and results were normalized to the expression of a housekeeping gene. Primer (Eurofins): human β-actin (forward sequence: 5′-CACCATTGGCAATGAGCGGTTC-3′; reverse sequence: 5′-AGGTCTTTGCGGATGTCCACGT-3′) and human NR4A1 (forward sequence: 5′-GGACAACGCTTCATGCCAGCAT-3′; reverse sequence: 5′-CCTTGTTAGCCAGGCAGATGTAC-3′).

B16F10 melanoma = B16F10 melanoma syngeneic tumor model; assay type: in vivo, mouse; settings: B16F10 in WT mice, 1.8 mg/kg NR-V04 or 0.75 mg/kg celastrol i.p. twice a week from day 7
Source text: (§1) 7–9-wk-old C57BL/6J, B6.129S2-Ighm^tm1Cgn/J (002288), B6.129S2-Nr4a1^tm1Jmi/J (NR4A1^−/−, 006187), and NOD-SCID interleukin-2 receptor gamma null (NSG) mice were purchased from Jackson Laboratories. For all studies involving NR-V04 and celastrol, the compounds were formulated in 50% phosal PG, 45% miglyol 810N, and 5% polysorbate 80 and administered via i.p. injection.
(§2) For syngeneic tumor models, 5 × 10^5 cells MC38, Yumm1.7, and Yummer1.7, 1 × 10^5 cells of B16F10 were resuspended in PBS and implanted into 7–9-wk-old mice subcutaneously. For the tumor inhibition experiment, mice were treated with 1.8 mg/kg NR-V04 or 0.75 mg/kg celastrol by i.p. injection twice weekly. For the immune profile experiment, once tumors reached 0.5 cm in diameter, mice were treated with 1.8 mg/kg NR-V04 by i.p. injection twice weekly. For the toxicity experiment, male and female non-tumor-bearing mice were treated with 2 mg/kg NR-V04 for two doses in the first week and 5 mg/kg for another two doses in the second week. Blood samples were taken from the submandibular (facial) vein before each treatment and 42 days later for hematological analysis, and body weight was measured twice per week up to day 42. Mice were euthanized in accordance with the IACUC protocol once the largest tumors reached 2 cm in diameter, and tissues were collected for further analysis.

MC38 tumors = assay: MC38 colon cancer syngeneic tumor model; assay type: in vivo, mouse; settings: MC38 in WT mice, 1.8 mg/kg NR-V04 or 0.75 mg/kg celastrol i.p. twice a week from day 7
Source text: as §1, §2

NR4A1 [2] = molecular target: T1, NR4A1 (Homo sapiens, UniProt P22736); assay: NR4A1 degradation in CHL-1 human melanoma cells (immunoblotting); assay type: cell-based; settings: CHL-1 cells, 16 h
T1 construct: NR-V04 effectively promoted the degradation of NR4A1 in two human melanoma cell lines within 16 h; endogenous in cells; host or cells: CHL-1, A375, WM164, M229 human melanoma cells
Method: Human melanoma cell lines: A375 and CHL-1 (gifts from Dr. D. Zhou, the University of Texas Health Science Center, San Antonio, TX, USA) were cultured in Dulbecco’s Modified Eagles’ Medium (DMEM, D5796; Sigma-Aldrich), WM164 and M229 (gifts from Dr. K.S.M. Smalley’s lab) were cultured in RPMI-1640 (R8758; Sigma-Aldrich). Mouse melanoma cell lines: B16F10 (CRL-6475, ATCC) was cultured in DMEM, SW1 and SM1 (gift from Dr. K.S.M. Smalley, Moffitt Cancer Center, Tampa, FL, USA) were cultured in RPMI. Human epithelial kidney cell lines: HEK293T (293T, CRL-3216; ATCC) and Vhl-KO-293T (gift from Dr. D. Zhou, the University of Texas Health Science Center, San Antonio, TX, USA) were cultured in DMEM. Mouse colon cancer cell lines: MC38 (ENH204-FP; Kerafast Inc.) was cultured in DMEM supplemented with 1 mM glutamine, […] non-essential amino acids (11140050; Thermo Fisher Scientific), 1 mM sodium pyruvate (11360070; Thermo Fisher Scientific), and 10 mM HEPES (15630080; Thermo Fisher Scientific). All cell culturing media were supplemented with 10% fetal bovine serum (FBS, F2442; Sigma-Aldrich), 100 U/ml penicillin, and 100 µg/ml streptomycin (P4333; Sigma-Aldrich).
Samples were lysed using radioimmunoprecipitation assay buffer (RIPA) lysis buffer (150 mM NaCl, 5 mM EDTA, 50 mM Tris pH 8.0, 0.5% sodium deoxycholate, 1% NP-40, 0.1% SDS) supplemented with 1 mM dithiothreitol and protease inhibitors. The lysates were separated by SDS-PAGE and analyzed using standard western blotting procedures ([Khan et al., 2019]). Antibodies: human NR4A1 (ab153914, 1:1,000; Abcam), mouse NR4A1 (14-5965-82, 1:1,000; Invitrogen), NR4A2 (AV38753, 1:1,000; Sigma-Aldrich), NR4A3 (TA804893, 1: 1,000; Thermo Fisher Scientific), VHL (68547, 1:1,000; Cell Signaling), β-actin (13E5, 1:5,000; Cell Signaling), β-tubulin (9F3, 1: 5,000; Cell Signaling), and GAPDH (D16H11, 1: 5,000; Cell Signaling) were employed for protein detection.

T1 sequence (P22736 whole entry): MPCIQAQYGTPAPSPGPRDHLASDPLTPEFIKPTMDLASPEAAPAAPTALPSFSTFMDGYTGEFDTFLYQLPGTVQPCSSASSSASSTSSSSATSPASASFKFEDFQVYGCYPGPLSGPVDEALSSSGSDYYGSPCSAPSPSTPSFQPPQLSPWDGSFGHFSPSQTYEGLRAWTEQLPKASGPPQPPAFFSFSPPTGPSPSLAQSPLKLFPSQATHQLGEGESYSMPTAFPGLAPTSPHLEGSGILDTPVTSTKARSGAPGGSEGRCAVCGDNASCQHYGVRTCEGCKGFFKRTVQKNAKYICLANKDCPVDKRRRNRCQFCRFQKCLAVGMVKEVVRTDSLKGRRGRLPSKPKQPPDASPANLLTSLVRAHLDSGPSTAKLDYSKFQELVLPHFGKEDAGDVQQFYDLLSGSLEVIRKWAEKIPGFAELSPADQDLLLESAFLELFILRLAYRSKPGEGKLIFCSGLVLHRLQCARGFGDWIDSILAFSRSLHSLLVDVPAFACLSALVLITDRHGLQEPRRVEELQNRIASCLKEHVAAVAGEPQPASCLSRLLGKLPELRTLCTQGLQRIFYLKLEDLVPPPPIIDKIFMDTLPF
NR4A1 and VHL, sequence (P22736 whole entry): as above
NR4A1 and VHL, sequence (P40337 whole entry): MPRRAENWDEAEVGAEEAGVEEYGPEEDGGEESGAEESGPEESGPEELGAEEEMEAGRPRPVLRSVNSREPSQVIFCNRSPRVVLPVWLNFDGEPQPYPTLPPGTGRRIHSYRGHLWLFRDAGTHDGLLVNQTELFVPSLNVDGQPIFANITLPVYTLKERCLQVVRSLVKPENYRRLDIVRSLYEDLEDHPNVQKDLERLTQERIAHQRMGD
NR4A1 and VHL, sequence (Q15369 whole entry partner): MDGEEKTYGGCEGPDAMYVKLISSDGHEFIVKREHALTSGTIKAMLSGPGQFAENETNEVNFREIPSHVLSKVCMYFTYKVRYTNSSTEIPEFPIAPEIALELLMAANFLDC
NR4A1 and VHL, sequence (Q15370 whole entry partner): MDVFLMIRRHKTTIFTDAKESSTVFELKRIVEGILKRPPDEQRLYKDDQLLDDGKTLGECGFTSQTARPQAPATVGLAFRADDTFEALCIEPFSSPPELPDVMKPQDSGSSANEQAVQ

Compound: CC1=C(O)C(=O)C=C2C1=CC=C1[C@@]2(C)CC[C@@]2(C)[C@@H]3C[C@](C)(C(=O)O)CC[C@]3(C)CC[C@]12C [celastrol, reference compound]
- Kd (NR4A1 [1]): 290 nM
- PLA signals (ternary complex formation NR4A1-VHL) (NR4A1 and VHL): did not
- NR4A1 mRNA level (NR4A1 mRNA): increase in NR4A1 mRNA levels after 2 h
- tumor growth (B16F10 melanoma): increased growth of B16F10 tumors
- tumor growth (MC38 tumors): failure to inhibit tumor growth of MC38 tumors
- NR4A1 protein level, initial screening (NR4A1 [2]; 250 nM, immunoblotting and densitometry): did not alter the protein level of NR4A1
- NR4A1 protein level, dose response (NR4A1 [2]): did not change NR4A1 protein level

— publication PMC10857906, “PROTAC-mediated NR4A1 degradation as a novel strategy for cancer immunotherapy” (The Journal of Experimental Medicine, 2024)
